The values below come from patent US20240327459A1, “PEPTIDE FRAGMENTS FOR TREATMENT OF DIABETES” (Follicum AB, priority 2018, published 2024).

Test [1] relates to INS-1E cells. The experiment in a line: Insulin secretion from INS-1E cells (Example 18). In kind it is cell-based, rat. The following applies: 100 nM peptide, high (16.7 mM) glucose buffer, 60 min, vs un-supplemented buffer. How it is done:
To investigate the stimulatory effect of FOL-056 on insulin secretion we used INS-1E cells. The cells were seeded overnight and washed with PBS before pre-incubation for 60 min at 37° C. in Krebs-Ringer bicarbonate buffer (KRB), pH 7.4, supplemented with 10 mM HEPES, 0.1% bovine serum albumin. Following pre-incubation, the buffer was discarded and the INS-1E cells were incubated in fresh KRB buffer supplemented with 10 mM HEPES, 0.1% bovine serum albumin with or without peptide FOL-056. For comparative purposes cells treated with FOL-014 was included. Following 60 min incubation at 37.C, the buffer was removed and frozen for subsequent insulin assay.

Test [2] concerns INS-1E cells. The experiment in a line: Insulin secreting capacity after 72 hours of glucotoxic conditions (Examples 19, 22). Type of test: cell-based, rat. The following applies: Example 19, 20 mM glucose 72 hours with peptide, then 16.7 mM glucose 1 h. As to the method:
To investigate the β-cell protective effect of FOL-056, we subjected INS-1E to cytotoxic levels of glucose for 72 hours. Rat INS-1E cells were seeded in 96-well plates (2×10^3 cells/well) in cRPMI medium. Following 72 hours of incubation, the medium was changed to RPMI containing 20 mM glucose with or without FOL-056 or FOL-014 and were cultured at 37° C. during an additional 72 hours to induce glucotoxicity. RPMI containing 5 mM glucose was included as a low glucose control. Following 72 hours, the medium was removed and the INS-1E cells were equilibrated in Krebs-Ringer bicarbonate buffer (KREB), pH 7.4, (supplemented with 10 mM HEPES, 0.1% bovine serum albumin and 2.8 mM glucose) for 2 hours. After equilibration, the buffer was changed and the INS-1E cells were incubated in KREBs containing 16.7 mM glucose […] during 1 h. Immediately after incubation, an aliquot of the buffer was removed and frozen for subsequent assay of insulin content.
To investigate the β-cell protective effect of several novel peptide fragments derived from FOL-005 and FOL-014, INS-1 cells were subjected to cytotoxic levels of glucose for 72 hours. […] In order to correct for the variance between experiments, all values were normalized to, and expressed as percentage of the average value of the high glucose control in the individual experiments. […]

Test [3] deals with human pancreatic β-cell line 1.2B4. The test is described as follows: Insulin secretion from 1.2B4 human β-cells. The following applies: 100 nM peptide, 16.7 mM glucose, 60 minutes. Type of test: cell-based. How it is done:
In order to test the effect of FOL-014 and FOL-056 in human cells, the human pancreatic β-cell line 1.2B4 were cultured at 37° C. and 5% CO2 in RPMI 1640 supplemented with 10% fetal bovine serum, 50 IU/mL penicillin, 50 mg/L streptomycin, 1 mM L-glutamine. 1.2B4 cells were seeded in 24-well plates in RPMI medium and following overnight incubation, the medium was removed before pre-incubation for 40 min at 37° C. in Krebs-Ringer bicarbonate buffer, pH 7.4, supplemented with 10 mM HEPES, 0.1% bovine serum albumin and 1.0 mM glucose. Following pre-incubation, the buffer was exchanged with fresh Krebs-Ringer buffer as described above and supplemented with specific glucose concentrations, 1 mM or 16.7 mM. FOL-014, FOL-056 or Liraglutide was added at a concentration of 100 nM in the presence of 16.7 mM glucose. Immediately after 60 minutes incubation at 37° C., an aliquot of the buffer was removed and frozen for subsequent insulin ELISA assay. (FIG. 18)

In the next test the test system is human islets. The test is described as follows: Insulin secretion from human pancreatic islets. In kind it is cell-based. To be noted: 1 nM peptide, 16.7 mM glucose, 60 minutes, two donors. As to the method: To investigate the functionality of FOL-056 in human primary tissue, the pancreatic islets from two non-diabetic human donors were used. Islets were picked, aliquoted in groups of 12 and incubated at 37° C. in 1 ml Krebs-Ringer bicarbonate buffer, pH 7.4, supplemented with 10 mM HEPES, 0.1% bovine serum albumin and 1.0 mM glucose. Following pre-incubation, the buffer was exchanged with fresh Krebs-Ringer buffer as described above and supplemented with specific glucose concentrations (1 mM or 16.7 mM), FOL-056 peptides (1 nM) or Liraglutide (100 nM). Immediately after 60 minutes incubation at 37° C., an aliquot of the buffer was removed and frozen for subsequent insulin ELISA assay. (FIG. 19)

The test system of test [4] is diet induced obese c57BI6 mice. The test is described as follows: Acute insulin response in diet induced obese mice after long term dosing. Type of test: in vivo, mouse. The following applies: 300 nmol/kg subcutaneously 5 days per week, 12 weeks high fat diet; 1 minute after 1 g/kg iv glucose; P=0.01. How it is done: Materials and methods: To investigate the effects of FOL-056 in vivo in a high fat diet model, wild type c57BI6 mice were subcutaneously dosed 5 days per week with 300 nmol/kg FOL-056, while being fed high fat diet for 12 weeks. Control animals were dosed with PBS.
In diet induced obese c57BI6 mice, untreated or dosed with FOL-056, the fasting plasma insulin levels were measured before as well as 1 minute after an intravenous glucose injection of 1 g/kg. The insulin value measured before the glucose injection was subtracted from the value measured after the injection for each individual mouse in order to obtain the acute insulin response (AIR). (FIG. 20)

The next test deals with db/db mice. The experiment in a line: HbA1c in db/db mice after 4 weeks of dosing. In kind it is in vivo, mouse. To be noted: 100 nmol/kg subcutaneously, 5 days per week for 4 weeks, vs PBS control. As to the method: To investigate the long-term effect of FOL-014 and FOL-056 in diabetic mice, db/db mice were dosed with 100 nmol/kg peptide subcutaneously, 5 days per week for 4 weeks. Control mice were injected with PBS. After 4 weeks of treatment the mice were terminated and 25 μl whole blood was immediately frozen for subsequent HbA1c analysis. (FIG. 21).

Entries after “also recorded” stand apart in the source; their conditions may differ.

On to “AEIDSIELSYGIK (MISC_FEATURE - peptide) [FOL-056]”, for which the insulin secretion entry in the test with INS-1E cells [1] is “secrete significantly more insulin compared to unstimulated control cells; also recorded: significantly increased the insulin secretion as compared with cells treated with an un-supplemented high glucose buffer”; in test [3], “increase the insulin secretion capacity in 1.2B4 human β-cells; also recorded: significantly increased the insulin secretion as compared with cells treated with an un-supplemented high glucose buffer”; in the test with human islets, “potentiates the capacity of primary human pancreatic islets to secrete insulin as a response to high glucose levels; also recorded: significantly increased the insulin secretion as compared with cells treated with an un-supplemented high glucose buffer”. Moreover, in the test on INS-1E cells [2], the “insulin secreting ability after glucotoxic conditions” value is “preserves β-cell function as shown by retained glucose induced insulin secretion; also recorded: abolished the glucotoxic effects and retained insulin release at the same level as from β-cells in the low (5 mM) glucose treatment group”. In addition, the “acute insulin response (AIR)” value in test [4] is given as “significantly improved; also recorded: significantly higher”. Besides, in the test with db/db mice, the HbA1c entry is “reduce the HbA1c in db/db mice as compared with the untreated control group; also recorded: significantly lower HbA1c”.
